Measurements as given in article PMC8624038, “Understanding the Mechanism of Action of NAI-112, a Lanthipeptide with Potent Antinociceptive Activity” (Molecules, 2021).
Like-named read-outs stand apart in the source and are kept apart here.

What was measured:
S. aureus ATCC6538P (wt) = assay: microbe, parasite or virus in culture; assay type: cell-based, Staphylococcus aureus; conditions: 24 h
Method: (§1) All experiments were performed with S. aureus ATCC6538P. The strain was propagated at 37 °C in Mueller–Hinton Broth (BD Difco^TM) containing 20 mg/L of CaCl2 and 10 mg/L of MgCl2 (MHBC medium). For selection of resistant strains by direct plating, S. aureus cultures were grown until OD600 of 0.7, corresponding to 5 × 10^8 CFU/mL, centrifuged, and resuspended with fresh medium to 1 × 10^10 CFU/mL. Then, 100 µL were spread on Muller–Hinton Agar (BD Difco^TM) supplemented with 160 µg/mL or 640 µg/mL of NAI-112 and incubated at 37 °C. Colonies were scored after 10 days. For selection of resistant mutants by serial passages, MHBC medium containing serial, twofold dilutions of NAI-112, starting from 512 µg/mL down to 0.5 µg/mL, was inoculated with 1 × 10^5 CFU/mL in a 96-well microtiter plate. Cultures were incubated overnight at 37 °C. The culture at the highest concentration that supported growth was diluted to 1 × 10^5 CFU/mL with fresh medium and added to a fresh plate containing serial dilutions of NAI-112 as before, followed by overnight incubation. This process was continued for 15 passages. From cultures at passage 8 (grown at 64 µg/mL) and passage 15 (grown at 256 µg/mL), single colonies were isolated and named R8.1 and R8.2 (from the eighth series) and R15.1–15.5 (from the fifteenth series).
(§2) MICs were determined by the broth microdilution methodology in sterile 96-well microtiter plates according to Clinical and Laboratory Standards Institute (CLSI) guidelines, as described by Iorio et al.. When indicated, bovine serum albumin was added to MHBC medium at 0.02% (w/v). […] Growth curves were measured under the same conditions by recording the optical density at 595 nm (OD595) over 20 h using a Synergy 2.0 plate reader (BioTeck, Winooski, VT, USA).

[1] = tested on: S. aureus mutant strain R15.5; assay: microbe, parasite or virus in culture; assay type: cell-based, Staphylococcus aureus; conditions: for MIC: 24 h; for MIC Ratio (R15.1 to wt): ratio of MICs, mutant to wt
Method: as §1, §2

[2] = tested on: S. aureus mutant strain R8.1; assay: microbe, parasite or virus in culture; assay type: cell-based, Staphylococcus aureus; conditions: for MIC: 24 h
Method: as §1, §2

[3] = cited from earlier work
[4] = class II lantibiotics; ref [29],[30],[31],[32]; cited from earlier work
Source text: A few studies have identified the molecular targets of lanthipeptides. […] Two-peptide lantibiotics, ...

neuropathic pain = conditions: ref [7]; cited from earlier work
Source text: (§3) NAI-112 is a labionine (Lab)-containing lanthipeptide with a glycosylated tryptophan residue and an unusual methyl-Lab bridge. It was discovered in a phenotypic screening program for inhibitors of bacterial cell wall biosynthesis. […] At the time of its discovery, there was only one precedent of Lab-containing lanthipeptides, the labyrinthopeptins. In particular, despite having unrelated amino acid sequences, NAI-112 and labyrinthopeptin A2 share a similar ri ...

virus = conditions: ref [7]; cited from earlier work
Source text: as §3

TRPV1 [5] = conditions: ref [24], cited from earlier work
Source text: The results from the lipidomic experiments in mice, from the binding assay analyzed in MS and from the analysis of the S. aureus mutants resistant to NAI-112, are consistent with the hypothesis that NAI-112 binds to one or more phosphate-containing lipids and, by doing so, interferes with the processing of these lipids by relevant enzymes. In mice, this interference translates in lower LPA levels.

TRPV1 [6] = conditions: cited from earlier work
Source text: In mice, this interference translates in lower LPA levels.

[7] = class I lanthipeptides, followed by pore formation or membrane disruption, ref [25],[26],[27]

**Q.** With CC[C@H]1OC(=O)[C@H](C)[C@@H](O[C@H]2C[C@@](C)(OC)[C@@H](O)[C@H](C)O2)[C@H](C)[C@@H](O[C@@H]2O[C@H](C)C[C@H](N(C)C)[C@H]2O)[C@](C)(O)C[C@@H](C)C(=O)[C@H](C)[C@@H](O)[C@]1(C)O [Erythromycin, erythromycin] as the compound, how does the MIC (S. aureus ATCC6538P (wt); Staphylococcus aureus, ATCC6538P) read?
**A.** The MIC was 0.125 µg/mL.

**Q.** And the MIC ([1]; Staphylococcus aureus)?
**A.** Its MIC is 0.125 µg/mL.

**Q.** And the “MIC Ratio (R15.1 to wt)” value [1]?
**A.** Its value is 1.

**Q.** And the MIC ([2]; Staphylococcus aureus)?
**A.** The MIC was 0.125 µg/mL.

**Q.** Which MIC (S. aureus ATCC6538P (wt); Staphylococcus aureus, ATCC6538P, wt, MHBC medium, 1 × 10^5 CFU/mL, 37 °C, broth microdilution (CLSI), read-out: MIC) does the source give for CO[C@H]1/C=C/O[C@@]2(C)Oc3c(C)c(O)c4c(O)c(c(/C=N/N5CCN(C)CC5)c(O)c4c3C2=O)NC(=O)/C(C)=C\C=C\[C@H](C)[C@H](O)[C@@H](C)[C@@H](O)[C@@H](C)[C@H](OC(C)=O)[C@@H]1C [Rifampicin, rifampicin] here?
**A.** The MIC was 0.004 µg/mL.

**Q.** And the MIC ([1]; Staphylococcus aureus)?
**A.** Its MIC is 0.004 µg/mL.

**Q.** And the “MIC Ratio (R15.1 to wt)” value [1]?
**A.** The value was 1.

**Q.** What about the MIC ([2]; Staphylococcus aureus) of the same compound?
**A.** Its MIC is 0.004 µg/mL.

**Q.** Which results are given for CN[C@H](CC(C)C)C(=O)N[C@H]1C(=O)N[C@@H](CC(N)=O)C(=O)N[C@H]2C(=O)N[C@H]3C(=O)N[C@H](C(=O)N[C@H](C(=O)O)c4cc(O)cc(O)c4-c4cc3ccc4O)[C@H](O)c3ccc(c(Cl)c3)Oc3cc2cc(c3O[C@@H]2O[C@H](CO)[C@@H](O)[C@H](O)[C@H]2O[C@H]2C[C@](C)(N)[C@H](O)[C@H](C)O2)Oc2ccc(cc2Cl)[C@H]1O [Vancomycin, vancomycin]?
**A.** MIC (S. aureus ATCC6538P (wt); wt, MHBC medium, 1 × 10^5 CFU/mL, 37 °C, broth microdilution (CLSI)): 0.5 µg/mL; shift in MIC relative to wt, in words ([1]; R15.5): modest but consistent shift; MIC ([1]; R15.5, MHBC medium, 1 × 10^5 CFU/mL, 37 °C, broth microdilution (CLSI)): 2 µg/mL; MIC Ratio (R15.1 to wt) [1]: 4; shift in MIC relative to wt, in words ([2]; R8.1): modest but consistent shift; MIC ([2]; R8.1, MHBC medium, 1 × 10^5 CFU/mL, 37 °C, broth microdilution (CLSI)): 1 µg/mL; binding to lipid II ([3]; ref [14],[15]): bind to the essential peptidoglycan precursor lipid II

**Q.** Which “binding to phosphatidylethanolamine-containing lipids” value [4] does the source give for cinnamycin here?
**A.** Its value is “bind to phosphatidylethanolamine-containing lipids”.

**Q.** With duramycin as the compound, how does the “binding to phosphatidylethanolamine-containing lipids” value [4] read?
**A.** Its value is “bind to phosphatidylethanolamine-containing lipids”.

**Q.** For gallidermin, which “binding to lipid II” value [3, 7] is on record?
**A.** Its value is “bind to lipid II”.

**Q.** With labyrinthopeptin A2 as the compound, how does the “activity in a neuropathic pain model” value (neuropathic pain) read?
**A.** The value was “highly active”.

**Q.** And the antiviral activity (virus)?
**A.** The antiviral activity was “moderate antiviral activity”.

**Q.** With lacticin 3147 as the compound, how does the “complex with lipid II” value ([3]; through mersacidin-like component, ref [33]) read?
**A.** Its value is “form a complex with lipid II”.

**Q.** What does the source list for lysophosphatidic acid [LPA]?
**A.** acute pain-like behaviors (TRPV1 [5]; Trpv1-null animals): substantially reduced; acute pain-like behaviors (TRPV1 [5]; control mice): produces acute pain-like behaviors; TRPV1 receptor activation (TRPV1 [6]; ref [10],[11]): activates the TRPV1 receptor; direct binding to TRPV1 ion channel (TRPV1 [6]; ref [24]): LPA binding directly to an ion channel

**Q.** Which “binding to lipid II” value ([3]; class II lantibiotics, ref [28]) does the source give for mersacidin here?
**A.** The value was “bind to lipid II”.

**Q.** Which “binding to lipid II” value [3, 7] does the source give for nisin here?
**A.** The value was “bind to lipid II”.

**Q.** What about the “binding to pyrophosphate cage of lipid II” value ([3]; in membranes of bacterial cells, ref [34]) of the same compound?
**A.** The value was “binding of nisin to the pyrophosphate cage of lipid II”.

**Q.** Which results are given for ramoplanin?
**A.** MIC (S. aureus ATCC6538P (wt); wt, in the presence of 0.02% BSA, MHBC medium, 1 × 10^5 CFU/mL, 37 °C): 0.06 µg/mL; shift in MIC relative to wt, in words ([1]; R15.5): modest but consistent shift; MIC ([1]; R15.5, in the presence of 0.02% BSA, MHBC medium, 1 × 10^5 CFU/mL, 37 °C): 0.25 µg/mL; MIC Ratio (R15.1 to wt) ([1]; in the presence of 0.02% BSA): 4; shift in MIC relative to wt, in words ([2]; R8.1): modest but consistent shift; MIC ([2]; R8.1, in the presence of 0.02% BSA, MHBC medium, 1 × 10^5 CFU/mL, 37 °C): 0.25 µg/mL; binding to lipid II ([3]; ref [14],[15]): bind to the essential peptidoglycan precursor lipid II
